Laboratory results: article PMC2652249 (Biochemistry, 2008)
Values joined by “and” are separate entries in the source; they are usually repeats but may differ in a detail not shown here. Equal values may be shown once. “Also recorded” adds a separate entry of the source. Read-outs that look alike come from different tables or passages of the source.

Assays:
DNA polymerase X (Pol X) [1] = biological target: T1, DNA polymerase X (Pol X) (African swine fever virus, UniProt P42494); test: biochemical; assay type: biochemical
DNA polymerase X (Pol X) [2] = biological target: T1, DNA polymerase X (Pol X)
DNA polymerase X (Pol X) [3] = biological target: T1, DNA polymerase X (Pol X); conditions: cited from earlier work

T1 sequence (P42494 whole entry, looked up): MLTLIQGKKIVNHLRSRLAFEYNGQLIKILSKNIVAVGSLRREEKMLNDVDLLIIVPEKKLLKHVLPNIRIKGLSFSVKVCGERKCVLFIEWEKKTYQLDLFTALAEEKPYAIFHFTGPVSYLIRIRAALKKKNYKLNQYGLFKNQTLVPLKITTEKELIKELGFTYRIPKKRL

| Compound | inhibition of Pol X by PPi (DNA polymerase X (Pol X) [1]) | global fitting Vmax (DNA polymerase X (Pol X) [1]) | incorporation under the steady-state conditions (DNA polymerase X (Pol X) [1]) | Ki (DNA polymerase X (Pol X) [1]; global fitting KI) | Km (DNA polymerase X (Pol X) [1]; read-out: global fitting Km) | k1 of fluorescence change (double-exponential) (DNA polymerase X (Pol X) [2]) [s⁻¹] | k2 of fluorescence change (double-exponential) (DNA polymerase X (Pol X) [2]) [s⁻¹] | turnover rate slower than the rate of correct dG:dCTP incorporation (DNA polymerase X (Pol X) [3]) [fold] | Kd (DNA polymerase X (Pol X) [3]; read-out: KD,app) [µM] | Km (DNA polymerase X (Pol X) [1]) | Vmax (DNA polymerase X (Pol X) [1]) | single-exponential rate k of fluorescence change (DNA polymerase X (Pol X) [2]) |
| --- | --- | --- | --- | --- | --- | --- | --- | --- | --- | --- | --- | --- |
| O=P(O)(O)OP(=O)(O)O [PPi, Pyrophosphate] | not inhibited noticeably; also recorded: modest inhibition |  |  |  |  |  |  |  |  |  |  |  |
| Nc1ncnc2c1ncn2[C@H]1C[C@H](O)[C@@H](COP(=O)(O)OP(=O)(O)OP(=O)(O)O)O1 [dATP] |  | 1.51 nmol/min | no detectable incorporation | 48 µM and 150 µM | 13 µM | 5.92 ± 0.21 | 1.17 ± 0.02 | 430 | 80 |  |  |  |
| Nc1ccn([C@H]2C[C@H](O)[C@@H](COP(=O)(O)OP(=O)(O)OP(=O)(O)O)O2)c(=O)n1 [dCTP] |  | 0.51 nmol/min and 0.47 nmol/min |  |  | 35 µM and 41 µM |  |  |  |  | 32 µM and 45 µM | 0.52 ± 0.02 nmol/min and 0.49 ± 0.02 nmol/min | 1.64 s⁻¹ and 1.64 ± 0.01 s⁻¹ |
